According to US5721246A, “Heterobicyclic sulfonamide and sulfonic ester derivatives” (Eisai Co., Ltd., priority 1993, dated 1998):
≈ marks a conversion by molar mass, not a printed value.

Each compound was assayed on HCT116 (assay: animal or person). Conditions: Mus musculus, HCT-116, ip, 504 h; 50 mg/kg/day i.p., once a day for 4 days; nude mice; tumor weight on 21st day; read-out: Growth inhibition ratio.
Excerpt: In vivo Antitumor Test Against HCT116 (Human Colon Cancer)
HCT116 (5 to 8×10^6) was subcutaneously transplanted to the flank of each nude mouse (BALB/c·nu/nu, aged 7 to 8 weeks, female). A test compound according to the present invention was suspended in a physiological saline containing 3.5% of dimethyl sulfoxide and 6.5% of Tween 80 and the obtained suspension was intraperitoneally administered to the mice treated above once a day in a predetermined dose for 4 days after the time at which the tumor volume had increased to about 100 mm^3, which was about 7 days after the transplantation. On the other hand, only a physiological saline containing 3.5% of dimethyl sulfoxide and 6.5% of Tween 80 was intraperitoneally administered to the mice of the control group. The control group was composed of ten mice, while each treated group was composed of five mice. On the 21st day after the initiation of administration, the tumor was extirpated from each mouse to determine its weight. The tumor growth inhibition ratio was determined by the following formula: [formula] T: average weight of tumor of the treated group C: average weight of tumor of the control group

SMILES | inhibition in vivo at 50 mg/kg [%]
NS(=O)(=O)c1ccc(S(=O)(=O)Nc2cccc3c(Cl)c[nH]c23)cc1 [Example 19] | 88
Nc1ccc(S(=O)(=O)Nc2cccc3c(Cl)c[nH]c23)cn1 [Example 33] | 74
CC(C)Nc1ccc(S(=O)(=O)Nc2cccc3c(Cl)c[nH]c23)cn1 [Example 46] | 84
CS(=O)(=O)NCc1ccc(S(=O)(=O)Nc2cccc3c(Cl)c[nH]c23)cc1 [Example 53] | 86
CS(=O)(=O)Cc1ccc(S(=O)(=O)Nc2cccc3c(Cl)c[nH]c23)cc1 [Example 73] | 78

Same assay, conditions: Mus musculus, HCT-116, ip, 504 h; 100 mg/kg/day i.p., once a day for 4 days; nude mice; tumor weight on 21st day; read-out: Growth inhibition ratio

SMILES | inhibition in vivo at 100 mg/kg [%]
CS(=O)(=O)Nc1ccc(S(=O)(=O)Nc2cccc3c(Cl)c[nH]c23)cc1 [Example 4] | 97
NS(=O)(=O)c1ccc(S(=O)(=O)Nc2ccc(Cl)c3c(Cl)c[nH]c23)cc1 [Example 21] | 95
CS(=O)(=O)c1ccc(S(=O)(=O)Nc2cccc3c(Cl)c[nH]c23)cc1 [Example 23] | 87
N#Cc1ccc(S(=O)(=O)Nc2cccc3c(C#N)c[nH]c23)cc1 [Example 28] | 77
N#Cc1c[nH]c2c(NS(=O)(=O)c3ccc(N)nc3)cccc12 [Example 37] | 93
CNC(=O)c1ccc(S(=O)(=O)Nc2cccc3c(Cl)c[nH]c23)cc1 [Example 72] | 87

These compounds were tested on colon 38 cells (assay: In vitro antitumor test against colon 38 cells (MTT)). Conditions: 72 h, concentration at which 50% of mouse colon 38 cells are inhibited, 3 days.
Type: cell-based
Protocol: In vitro Antitumor Test Against Colon 38 Cells (Mouse Colon Cancer Cells)
2.5×10^3 (0.1 ml) of colon 38 cells suspended in RPMI1640 medium (a product of Sanko Junyaku) containing 10% of fetal bovine serum, penicillin (100 units/ml), streptomycin (100 μg/ml), mercaptoethanol (5×10^-5 M) and sodium pyruvate (1 mM) were inoculated in each well of a 96-well flat-bottomed microplate, and cultured in an incubator containing 5% of carbon dioxide at 37° C. for one day.
A test compound according to the present invention was dissolved in dimethyl sulfoxide in a concentration of 20 mg/ml and the resulting solution was diluted with 10% fetal bovine serum/RPMI1640 medium to a concentration of 200 μg/ml. The resulting solution was diluted with 10% fetal bovine serum/RPMI1640 medium to prepare 3-fold serial dilutions with the maximum concentration being 200 μg/ml. The obtained dilutions were each poured into the well of the above-described culture plate in an amount of 0.1 ml. The resulting plate was cultured at 37° C. in an incubator containing 5% of carbon dioxide for 3 days.
Thereafter, a solution of MTT[3-(4,5-dimethylthiazol-2-yl)-2,5-diphenyltetrazolium bromide] (having a concentration of 3.3 mg/ml) was added to each well in an amount of 0.05 ml. The resulting mixtures were further incubated for 2 hours. The supernatant was removed from each well by suction. Formed formazan was dissolved in 0.1 ml of dimethyl sulfoxide. The absorbance at 540 nm was determined with a microplate reader and the absorbance was taken as an index of the number of viable cells. The inhibitory ratio of the test compound was calculated according to the following formula to determine the IC50 of the test compound, with the IC50 referring to the concentration at which 50% of mouse colon 38 cells are inhibited: [formula] T: absorbance of well containing a test compound C: absorbance of well containing no test compound

SMILES | IC50 [µg/mL]
O=[N+]([O-])c1ccc(S(=O)(=O)Nc2cccc3c(Cl)c[nH]c23)cc1 [Example 2] | 0.54 (≈ 1.54 µM)
CS(=O)(=O)Nc1ccc(S(=O)(=O)Nc2cccc3c(Cl)c[nH]c23)cc1 [Example 4] | 0.26 (≈ 0.65 µM)
O=S(=O)(Nc1cccc2c(Cl)c[nH]c12)c1cccc(Cl)c1 [Example 7] | 0.22 (≈ 0.645 µM)
Nc1ccc(S(=O)(=O)Nc2ccc(Cl)c3c(Cl)c[nH]c23)cc1 [Example 8] | 0.09 (≈ 0.253 µM)
COc1ccc(S(=O)(=O)Nc2cccc3cn[nH]c23)cc1 [Example 13] | 0.63 (≈ 2.08 µM)
O=S(=O)(Nc1cccc2c(Cl)c[nH]c12)c1ccc(Cl)nc1 [Example 14] | 0.23 (≈ 0.672 µM)
CSCc1ccc(S(=O)(=O)Nc2cccc3c(Cl)c[nH]c23)cc1 [Example 15] | 0.35 (≈ 0.954 µM)
N#Cc1c[nH]c2c(NS(=O)(=O)c3ccc(Cl)nc3)cccc12 [Example 18] | 0.11 (≈ 0.331 µM)
NS(=O)(=O)c1ccc(S(=O)(=O)Nc2cccc3c(Cl)c[nH]c23)cc1 [Example 19] | 0.1 (≈ 0.259 µM)
NS(=O)(=O)c1ccc(S(=O)(=O)Nc2ccc(Cl)c3c(Cl)c[nH]c23)cc1 [Example 21] | 0.12 (≈ 0.286 µM)
CSc1ccc(S(=O)(=O)Nc2cccc3c(Cl)c[nH]c23)cc1 [Example 22] | 0.69 (≈ 1.96 µM)
CS(=O)(=O)c1ccc(S(=O)(=O)Nc2cccc3c(Cl)c[nH]c23)cc1 [Example 23] | 0.13 (≈ 0.338 µM)
C[S+]([O-])c1ccc(S(=O)(=O)Nc2cccc3c(Cl)c[nH]c23)cc1 (stereo not drawn) [Example 24] | 0.09 (≈ 0.244 µM)
CC(=O)Nc1ccc(S(=O)(=O)Nc2ccc(C)c3c(Cl)c[nH]c23)cc1 [Example 26] | 0.17 (≈ 0.45 µM)
Cc1ccc(NS(=O)(=O)c2ccc(N)cc2)c2[nH]cc(Cl)c12 [Example 27] | 0.1 (≈ 0.298 µM)
N#Cc1ccc(S(=O)(=O)Nc2cccc3c(C#N)c[nH]c23)cc1 [Example 28] | 0.12 (≈ 0.372 µM)
N#Cc1ccc(NS(=O)(=O)c2ccc(N)cc2)c2[nH]cc(Cl)c12 [Example 32] | 0.17 (≈ 0.49 µM)
Nc1ccc(S(=O)(=O)Nc2cccc3c(Cl)c[nH]c23)cn1 [Example 33] | 0.1 (≈ 0.31 µM)
C[S+]([O-])Cc1ccc(S(=O)(=O)Nc2cccc3c(Cl)c[nH]c23)cc1 (stereo not drawn) [Example 34] | 0.14 (≈ 0.366 µM)
NS(=O)(=O)CCc1ccc(S(=O)(=O)Nc2cccc3c(Cl)c[nH]c23)cc1 [Example 35] | 0.14 (≈ 0.338 µM)
CS(=O)(=O)CCc1ccc(S(=O)(=O)Nc2cccc3c(Cl)c[nH]c23)cc1 [Example 36] | 0.11 (≈ 0.266 µM)

SMILES | IC50 [µg/mL]
N#Cc1c[nH]c2c(NS(=O)(=O)c3ccc(N)nc3)cccc12 [Example 37] | 0.19 (≈ 0.606 µM)
CC(=O)Nc1ccc(S(=O)(=O)Nc2cccc3c(Cl)c[nH]c23)cc1Cl [Example 38] | 0.57 (≈ 1.43 µM)
N#Cc1c[nH]c2c(NS(=O)(=O)c3ccc(Cl)s3)cccc12 [Example 40] | 0.27 (≈ 0.799 µM)
COC(=O)Nc1ccc(S(=O)(=O)Nc2cccc3c(Cl)c[nH]c23)cc1 [Example 41] | 0.57 (≈ 1.5 µM)
CONS(=O)(=O)c1ccc(S(=O)(=O)Nc2cccc3c(Cl)c[nH]c23)cc1 [Example 43] | 0.47 (≈ 1.13 µM)
Cc1c(Cl)cccc1S(=O)(=O)Nc1cccc2c(C#N)c[nH]c12 [Example 45] | 0.44 (≈ 1.27 µM)
CC(C)Nc1ccc(S(=O)(=O)Nc2cccc3c(Cl)c[nH]c23)cn1 [Example 46] | 0.47 (≈ 1.29 µM)
CN(C)CCNc1ccc(S(=O)(=O)Nc2cccc3c(Cl)c[nH]c23)cn1 [Example 47] | 0.22 (≈ 0.559 µM)
N#Cc1c[nH]c2c(NS(=O)(=O)c3ccco3)cccc12 [Example 48] | 0.23 (≈ 0.801 µM)
CN(C)S(=O)(=O)Nc1ccc(S(=O)(=O)Nc2cccc3c(Cl)c[nH]c23)cc1 [Example 49] | 0.32 (≈ 0.746 µM)
Cc1c[nH]c2c(NS(=O)(=O)c3ccc(S(C)(=O)=O)cc3)cccc12 [Example 50] | 0.22 (≈ 0.604 µM)
N#Cc1cccc(S(=O)(=O)Nc2cccc3c(C#N)c[nH]c23)c1 [Example 51] | 0.09 (≈ 0.279 µM)
CN(c1ccc(S(=O)(=O)Nc2cccc3c(Cl)c[nH]c23)cc1)S(C)(=O)=O [Example 52] | 0.14 (≈ 0.338 µM)
CS(=O)(=O)NCc1ccc(S(=O)(=O)Nc2cccc3c(Cl)c[nH]c23)cc1 [Example 53] | 0.12 (≈ 0.29 µM)
O=S(=O)(Nc1cccc2c(Cl)c[nH]c12)c1ccc(S(=O)(=O)N2CCCC2)cc1 [Example 54] | 0.51 (≈ 1.16 µM)
Cn1cnc(S(=O)(=O)Nc2cccc3c(C#N)c[nH]c23)c1 [Example 55] | 0.59 (≈ 1.96 µM)
O=S(=O)(Nc1cccc2c(Cl)c[nH]c12)c1ccc(NCCO)nc1 [Example 56] | 0.2 (≈ 0.545 µM)
O=S(=O)(Nc1cccc2c(Cl)c[nH]c12)c1ccc(S)nc1 [Example 57] | 0.66 (≈ 1.94 µM)
O=S(=O)(Nc1cccc2c(Cl)c[nH]c12)c1ccc(NC2CC2)nc1 [Example 59] | 0.54 (≈ 1.49 µM)
Cc1cncc(S(=O)(=O)Nc2cccc3c(C#N)c[nH]c23)c1 [Example 60] | 0.08 (≈ 0.256 µM)
CNS(=O)(=O)c1ccc(S(=O)(=O)Nc2cccc3c(Cl)c[nH]c23)cc1 [Example 61] | 0.24 (≈ 0.6 µM)

SMILES | IC50 [µg/mL]
CS(=O)(=O)NCCc1ccc(S(=O)(=O)Nc2cccc3c(Cl)c[nH]c23)cc1 [Example 62] | 0.18 (≈ 0.421 µM)
NS(=O)(=O)Cc1ccc(S(=O)(=O)Nc2cccc3c(Cl)c[nH]c23)cc1 [Example 63] | 0.12 (≈ 0.3 µM)
NC(=S)c1ccc(S(=O)(=O)Nc2cccc3c(Cl)c[nH]c23)cc1 [Example 64] | 0.23 (≈ 0.629 µM)
N#Cc1c[nH]c2c(NS(=O)(=O)c3ccc(Br)cn3)cccc12 [Example 65] | 0.2 (≈ 0.53 µM)
CC(=O)c1c[nH]c2c(NS(=O)(=O)c3cccc(Cl)c3)cccc12 [Example 67] | 0.87 (≈ 2.49 µM)
N#Cc1c[nH]c2c(NS(=O)(=O)c3ccc(N)cc3)cc(Br)cc12 [Example 68] | 0.57 (≈ 1.46 µM)
CCNS(=O)(=O)c1ccc(S(=O)(=O)Nc2cccc3c(Cl)c[nH]c23)cc1 [Example 69] | 0.47 (≈ 1.14 µM)
CCS(=O)(=O)Nc1ccc(S(=O)(=O)Nc2cccc3c(Cl)c[nH]c23)cc1 [Example 70] | 0.42 (≈ 1.01 µM)
N#CCCNc1ccc(S(=O)(=O)Nc2cccc3c(Cl)c[nH]c23)cn1 [Example 71] | 0.23 (≈ 0.612 µM)
CNC(=O)c1ccc(S(=O)(=O)Nc2cccc3c(Cl)c[nH]c23)cc1 [Example 72] | 0.15 (≈ 0.412 µM)
CS(=O)(=O)Cc1ccc(S(=O)(=O)Nc2cccc3c(Cl)c[nH]c23)cc1 [Example 73] | 0.11 (≈ 0.276 µM)
CN(C)S(=O)(=O)c1ccc(S(=O)(=O)Nc2cccc3c(Cl)c[nH]c23)cc1 [Example 74] | 0.36 (≈ 0.87 µM)
O=C(c1ccc(S(=O)(=O)Nc2cccc3c(Cl)c[nH]c23)cc1)N1CCCC1 [Example 75] | 0.28 (≈ 0.693 µM)
NS(=O)(=O)Cc1ccc(S(=O)(=O)Nc2ccc(Cl)c3c(Cl)c[nH]c23)cc1 [Example 77] | 0.17 (≈ 0.391 µM)
CS(=O)(=O)CCc1ccc(S(=O)(=O)Nc2cccc3c(C#N)c[nH]c23)cc1 [Example 78] | 0.26 (≈ 0.644 µM)
CC(=O)N(C)c1ccc(S(=O)(=O)Nc2cccc3c(Cl)c[nH]c23)cc1 [Example 79] | 0.09 (≈ 0.238 µM)
O=S(=O)(Nc1cccc2c(Cl)c[nH]c12)c1ccc(O)nc1 [Example 80] | 0.19 (≈ 0.587 µM)
CN(CCc1ccc(S(=O)(=O)Nc2cccc3c(Cl)c[nH]c23)cc1)S(C)(=O)=O [Example 81] | 0.25 (≈ 0.566 µM)
CN(Cc1ccc(S(=O)(=O)Nc2cccc3c(Cl)c[nH]c23)cc1)S(C)(=O)=O [Example 83] | 0.27 (≈ 0.631 µM)
